Holding throughout (assay): biochemical
What all share (format): biochemical

For experiment [1], the target named is 363 human kinases (including Aurora A/B/C) (Homo sapiens, UniProt O96013). Particulars: PAK4; for remaining activity at 0.1 µM: 100 nM; for remaining activity at 0.1 µM / remaining activity at 0.5 µM: read-out: % Enzyme Activity (relative to DMSO controls).
Text: (§1) However, the Aurora A/B selectivity ratios derived from our in vitro and in vivo data can be compared to prioritize inhibitors.
In experiment [2] the target is 363 human kinases (including Aurora A/B/C) (Homo sapiens, UniProt P08922). Particulars: ROS/ROS1; for remaining activity at 0.1 µM: 100 nM; for remaining activity at 0.1 µM / remaining activity at 0.5 µM: read-out: % Enzyme Activity (relative to DMSO controls).
Sequence of 363 human kinases (including Aurora A/B/C) (Homo sapiens, UniProt P08922) (P08922 28-2347): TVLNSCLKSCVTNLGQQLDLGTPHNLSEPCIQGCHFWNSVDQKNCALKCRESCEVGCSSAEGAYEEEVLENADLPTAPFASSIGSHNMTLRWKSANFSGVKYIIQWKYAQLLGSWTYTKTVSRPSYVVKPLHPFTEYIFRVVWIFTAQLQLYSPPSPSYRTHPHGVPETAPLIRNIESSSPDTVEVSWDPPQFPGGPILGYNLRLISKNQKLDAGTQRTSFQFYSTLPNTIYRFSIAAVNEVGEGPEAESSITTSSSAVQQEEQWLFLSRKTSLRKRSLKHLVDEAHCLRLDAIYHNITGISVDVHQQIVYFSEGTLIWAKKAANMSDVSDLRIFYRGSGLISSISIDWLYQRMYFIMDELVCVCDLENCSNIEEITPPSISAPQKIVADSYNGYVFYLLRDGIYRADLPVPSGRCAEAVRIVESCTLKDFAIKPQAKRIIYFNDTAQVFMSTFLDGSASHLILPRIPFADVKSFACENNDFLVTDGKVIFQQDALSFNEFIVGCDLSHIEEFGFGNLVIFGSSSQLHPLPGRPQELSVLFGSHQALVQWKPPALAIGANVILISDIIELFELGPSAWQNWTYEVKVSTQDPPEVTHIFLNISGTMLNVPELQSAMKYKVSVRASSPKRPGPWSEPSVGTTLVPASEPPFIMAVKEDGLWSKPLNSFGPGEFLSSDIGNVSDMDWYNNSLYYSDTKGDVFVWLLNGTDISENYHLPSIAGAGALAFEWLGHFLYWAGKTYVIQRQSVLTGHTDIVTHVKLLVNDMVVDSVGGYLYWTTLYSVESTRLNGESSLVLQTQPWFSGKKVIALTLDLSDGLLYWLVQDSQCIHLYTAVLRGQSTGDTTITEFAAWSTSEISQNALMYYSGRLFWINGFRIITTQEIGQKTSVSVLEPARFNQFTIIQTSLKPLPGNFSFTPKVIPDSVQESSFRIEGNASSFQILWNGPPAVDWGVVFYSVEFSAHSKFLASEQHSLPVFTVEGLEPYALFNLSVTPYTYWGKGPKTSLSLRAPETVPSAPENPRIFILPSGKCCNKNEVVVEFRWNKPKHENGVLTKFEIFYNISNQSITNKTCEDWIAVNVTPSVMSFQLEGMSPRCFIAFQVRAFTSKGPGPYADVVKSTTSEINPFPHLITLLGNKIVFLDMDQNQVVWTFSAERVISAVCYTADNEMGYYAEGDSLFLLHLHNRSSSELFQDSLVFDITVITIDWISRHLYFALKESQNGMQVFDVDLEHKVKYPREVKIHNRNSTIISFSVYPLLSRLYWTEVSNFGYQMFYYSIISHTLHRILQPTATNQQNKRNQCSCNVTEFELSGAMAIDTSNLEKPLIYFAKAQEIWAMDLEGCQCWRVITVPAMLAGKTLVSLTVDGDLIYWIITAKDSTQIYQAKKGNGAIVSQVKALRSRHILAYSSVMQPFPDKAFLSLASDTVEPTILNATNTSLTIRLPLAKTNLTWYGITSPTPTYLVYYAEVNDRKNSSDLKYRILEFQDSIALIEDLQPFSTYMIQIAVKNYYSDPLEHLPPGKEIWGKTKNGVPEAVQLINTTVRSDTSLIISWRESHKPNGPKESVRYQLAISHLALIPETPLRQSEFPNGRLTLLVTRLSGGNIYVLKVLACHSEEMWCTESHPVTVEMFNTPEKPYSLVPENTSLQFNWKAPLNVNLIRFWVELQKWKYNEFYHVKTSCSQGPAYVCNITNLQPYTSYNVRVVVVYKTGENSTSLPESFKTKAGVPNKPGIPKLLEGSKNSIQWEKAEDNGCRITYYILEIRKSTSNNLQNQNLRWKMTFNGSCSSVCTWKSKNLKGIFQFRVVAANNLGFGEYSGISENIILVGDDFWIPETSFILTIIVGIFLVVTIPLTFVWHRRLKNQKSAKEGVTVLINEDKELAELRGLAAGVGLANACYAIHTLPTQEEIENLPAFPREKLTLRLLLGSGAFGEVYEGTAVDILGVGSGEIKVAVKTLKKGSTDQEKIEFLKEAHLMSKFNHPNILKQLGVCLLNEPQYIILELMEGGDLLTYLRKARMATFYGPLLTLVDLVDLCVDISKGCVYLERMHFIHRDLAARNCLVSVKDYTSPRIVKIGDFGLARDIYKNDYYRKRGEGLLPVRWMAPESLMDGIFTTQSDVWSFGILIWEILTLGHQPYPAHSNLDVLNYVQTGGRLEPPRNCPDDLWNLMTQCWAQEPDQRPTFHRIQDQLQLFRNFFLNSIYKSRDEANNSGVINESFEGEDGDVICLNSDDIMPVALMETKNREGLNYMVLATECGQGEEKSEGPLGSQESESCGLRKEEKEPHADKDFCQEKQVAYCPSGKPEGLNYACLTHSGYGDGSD
Text: as §1
In experiment [3] the target is 363 human kinases (including Aurora A/B/C) (Homo sapiens, UniProt P28482). Particulars: ERK2/MAPK1, [ATP] 50 µM; for remaining activity at 0.1 µM: 100 nM; for remaining activity at 0.1 µM / remaining activity at 0.5 µM: read-out: % Enzyme Activity (relative to DMSO controls).
Sequence of 363 human kinases (including Aurora A/B/C) (Homo sapiens, UniProt P28482) (P28482 whole entry): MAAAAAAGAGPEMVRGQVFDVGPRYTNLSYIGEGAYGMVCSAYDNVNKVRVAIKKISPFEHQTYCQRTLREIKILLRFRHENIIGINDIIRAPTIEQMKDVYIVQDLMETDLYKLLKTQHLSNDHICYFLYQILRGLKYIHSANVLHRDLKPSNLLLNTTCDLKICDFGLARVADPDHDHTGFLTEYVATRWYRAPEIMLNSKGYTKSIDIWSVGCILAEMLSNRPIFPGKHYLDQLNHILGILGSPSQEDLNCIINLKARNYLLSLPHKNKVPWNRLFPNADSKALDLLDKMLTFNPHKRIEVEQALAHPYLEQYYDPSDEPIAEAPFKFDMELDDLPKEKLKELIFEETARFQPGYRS
Text: as §1
Experiment [4] deals with 363 human kinases (including Aurora A/B/C) (Homo sapiens, UniProt P35916). As to conditions: for remaining activity at 0.1 µM / remaining activity at 0.5 µM: read-out: % Enzyme Activity (relative to DMSO controls).
Text: as §1
Experiment [5] has as its target 363 human kinases (including Aurora A/B/C) (Homo sapiens, UniProt Q13554). As to conditions: CAMK2b, [ATP] 100 µM; for remaining activity at 0.1 µM: 100 nM; for remaining activity at 0.1 µM / remaining activity at 0.5 µM: read-out: % Enzyme Activity (relative to DMSO controls).
Text: as §1
The target of experiment [6] is 363 human kinases (including Aurora A/B/C) (Homo sapiens, UniProt Q13627). Particulars: DYRK1/DYRK1A, [ATP] 50 µM; for remaining activity at 0.1 µM: 100 nM; for remaining activity at 0.1 µM / remaining activity at 0.5 µM: read-out: % Enzyme Activity (relative to DMSO controls).
Text: as §1
Experiment [7] has as its target 363 human kinases (including Aurora A/B/C) (Homo sapiens, UniProt Q16513). Particulars: PKN2/PRK2; for remaining activity at 0.1 µM: 100 nM; for remaining activity at 0.1 µM / remaining activity at 0.5 µM: read-out: % Enzyme Activity (relative to DMSO controls).
Text: as §1
The target in experiment [8] is 363 human kinases (including Aurora A/B/C) (Homo sapiens, UniProt Q86UE8). Particulars: TLK2; for remaining activity at 0.1 µM: 100 nM; for remaining activity at 0.1 µM / remaining activity at 0.5 µM: read-out: % Enzyme Activity (relative to DMSO controls).
Sequence of 363 human kinases (including Aurora A/B/C) (Homo sapiens, UniProt Q86UE8) (Q86UE8 whole entry): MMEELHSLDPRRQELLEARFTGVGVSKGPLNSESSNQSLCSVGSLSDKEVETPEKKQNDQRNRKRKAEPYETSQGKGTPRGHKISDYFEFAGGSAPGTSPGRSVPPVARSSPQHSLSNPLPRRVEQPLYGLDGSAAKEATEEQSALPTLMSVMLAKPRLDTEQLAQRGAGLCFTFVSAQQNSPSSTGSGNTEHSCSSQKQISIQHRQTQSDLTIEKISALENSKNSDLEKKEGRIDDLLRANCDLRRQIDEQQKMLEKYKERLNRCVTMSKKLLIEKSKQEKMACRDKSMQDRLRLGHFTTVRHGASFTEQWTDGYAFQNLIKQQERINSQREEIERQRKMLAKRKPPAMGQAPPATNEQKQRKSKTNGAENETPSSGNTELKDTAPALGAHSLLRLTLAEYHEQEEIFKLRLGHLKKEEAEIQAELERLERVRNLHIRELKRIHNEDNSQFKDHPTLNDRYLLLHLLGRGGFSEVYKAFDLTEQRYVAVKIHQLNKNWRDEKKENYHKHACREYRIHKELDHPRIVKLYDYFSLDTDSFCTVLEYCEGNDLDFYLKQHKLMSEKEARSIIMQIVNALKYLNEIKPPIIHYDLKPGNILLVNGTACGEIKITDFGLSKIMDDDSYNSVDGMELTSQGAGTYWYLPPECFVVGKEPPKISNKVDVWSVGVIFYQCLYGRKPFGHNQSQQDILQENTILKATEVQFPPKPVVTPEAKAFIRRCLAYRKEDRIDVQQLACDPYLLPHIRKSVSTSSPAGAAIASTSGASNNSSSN
Text: as §1
In experiment [9] the target is 363 human kinases (including Aurora A/B/C) (Homo sapiens, UniProt Q9H792). As to conditions: PEAK1; for remaining activity at 0.1 µM: 100 nM; for remaining activity at 0.1 µM / remaining activity at 0.5 µM: read-out: % Enzyme Activity (relative to DMSO controls).
Text: as §1
Experiment [10] addresses T1, 363 human kinases (including Aurora A/B/C) (Homo sapiens, UniProt Q9UHD2).
T1 sequence (Q9UHD2 1-729): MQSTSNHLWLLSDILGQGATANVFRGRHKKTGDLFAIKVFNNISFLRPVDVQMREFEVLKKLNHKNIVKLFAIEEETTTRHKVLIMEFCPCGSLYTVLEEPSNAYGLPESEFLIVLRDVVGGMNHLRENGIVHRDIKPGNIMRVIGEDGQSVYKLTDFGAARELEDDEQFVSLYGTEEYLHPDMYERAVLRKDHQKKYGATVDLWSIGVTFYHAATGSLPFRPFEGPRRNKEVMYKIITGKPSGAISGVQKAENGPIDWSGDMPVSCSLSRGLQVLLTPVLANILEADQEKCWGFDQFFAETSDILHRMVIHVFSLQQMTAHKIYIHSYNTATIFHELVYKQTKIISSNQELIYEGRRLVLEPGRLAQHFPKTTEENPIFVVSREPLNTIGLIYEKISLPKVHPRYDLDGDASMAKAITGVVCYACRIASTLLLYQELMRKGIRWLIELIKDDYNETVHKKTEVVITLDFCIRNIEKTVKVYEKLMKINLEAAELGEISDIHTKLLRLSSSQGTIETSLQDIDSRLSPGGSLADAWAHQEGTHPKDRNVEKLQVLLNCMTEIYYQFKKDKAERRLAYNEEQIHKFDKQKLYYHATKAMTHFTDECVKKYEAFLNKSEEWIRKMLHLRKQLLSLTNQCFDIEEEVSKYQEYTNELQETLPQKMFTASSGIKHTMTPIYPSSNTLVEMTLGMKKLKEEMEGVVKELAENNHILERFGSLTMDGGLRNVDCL
Particulars: TBK1; for remaining activity at 0.1 µM: 100 nM; for remaining activity at 0.1 µM / remaining activity at 0.5 µM: read-out: % Enzyme Activity (relative to DMSO controls).
Text: as §1

The target of experiment [11] is T2, 363 human kinases (including Aurora A/B/C) (Homo sapiens, UniProt Q9UPZ9).
T2 sequence (Q9UPZ9 1-632): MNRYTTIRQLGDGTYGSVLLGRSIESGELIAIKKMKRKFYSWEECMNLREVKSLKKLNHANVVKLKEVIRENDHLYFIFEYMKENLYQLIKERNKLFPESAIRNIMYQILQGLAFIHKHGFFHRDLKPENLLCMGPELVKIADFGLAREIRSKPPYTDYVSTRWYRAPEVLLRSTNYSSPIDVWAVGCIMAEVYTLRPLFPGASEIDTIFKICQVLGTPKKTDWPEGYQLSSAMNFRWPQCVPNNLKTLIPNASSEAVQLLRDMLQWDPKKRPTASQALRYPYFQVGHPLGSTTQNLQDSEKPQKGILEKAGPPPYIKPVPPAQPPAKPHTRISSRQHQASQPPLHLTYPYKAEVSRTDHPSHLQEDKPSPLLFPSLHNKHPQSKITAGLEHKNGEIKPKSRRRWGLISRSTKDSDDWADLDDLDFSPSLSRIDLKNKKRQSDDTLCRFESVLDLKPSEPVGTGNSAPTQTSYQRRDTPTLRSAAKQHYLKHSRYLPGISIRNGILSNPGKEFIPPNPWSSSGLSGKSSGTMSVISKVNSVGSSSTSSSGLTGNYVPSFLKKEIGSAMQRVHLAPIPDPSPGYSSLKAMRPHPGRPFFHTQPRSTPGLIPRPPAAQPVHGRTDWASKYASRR
As to conditions: LCK2/ICK; for remaining activity at 0.1 µM: 100 nM; for remaining activity at 0.1 µM / remaining activity at 0.5 µM: read-out: % Enzyme Activity (relative to DMSO controls).
Text: as §1

Setting [12] is: FLT4/VEGFR3, [ATP] 5 µM, 500 nM.

Each structure is given as a SMILES string. Several values for one entry are separate records, joined by “and”; a condition that tells them apart may be missing. Equal values may be shown once. Read-outs that look alike come from different tables or passages of the source.

Sequence of 363 human kinases (including Aurora A/B/C) (Homo sapiens, UniProt Q13554) (Q13554 whole entry): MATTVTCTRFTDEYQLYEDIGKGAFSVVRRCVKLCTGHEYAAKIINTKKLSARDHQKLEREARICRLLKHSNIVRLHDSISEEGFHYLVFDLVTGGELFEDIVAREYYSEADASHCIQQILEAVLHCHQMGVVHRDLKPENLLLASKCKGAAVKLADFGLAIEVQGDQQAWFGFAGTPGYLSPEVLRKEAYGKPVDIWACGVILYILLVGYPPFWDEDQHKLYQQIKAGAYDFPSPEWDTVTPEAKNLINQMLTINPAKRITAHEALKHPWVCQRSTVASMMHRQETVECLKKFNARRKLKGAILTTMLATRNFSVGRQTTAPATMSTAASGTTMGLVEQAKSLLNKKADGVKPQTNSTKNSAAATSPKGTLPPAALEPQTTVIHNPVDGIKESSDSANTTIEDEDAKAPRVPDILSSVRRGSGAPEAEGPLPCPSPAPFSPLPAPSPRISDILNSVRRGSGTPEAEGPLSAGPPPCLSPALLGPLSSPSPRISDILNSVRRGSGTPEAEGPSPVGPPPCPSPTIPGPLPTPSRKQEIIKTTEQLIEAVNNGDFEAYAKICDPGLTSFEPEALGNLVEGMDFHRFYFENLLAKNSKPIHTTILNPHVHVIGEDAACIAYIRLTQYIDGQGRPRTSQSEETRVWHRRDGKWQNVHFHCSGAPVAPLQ
Sequence of 363 human kinases (including Aurora A/B/C) (Homo sapiens, UniProt Q16513) (Q16513 whole entry): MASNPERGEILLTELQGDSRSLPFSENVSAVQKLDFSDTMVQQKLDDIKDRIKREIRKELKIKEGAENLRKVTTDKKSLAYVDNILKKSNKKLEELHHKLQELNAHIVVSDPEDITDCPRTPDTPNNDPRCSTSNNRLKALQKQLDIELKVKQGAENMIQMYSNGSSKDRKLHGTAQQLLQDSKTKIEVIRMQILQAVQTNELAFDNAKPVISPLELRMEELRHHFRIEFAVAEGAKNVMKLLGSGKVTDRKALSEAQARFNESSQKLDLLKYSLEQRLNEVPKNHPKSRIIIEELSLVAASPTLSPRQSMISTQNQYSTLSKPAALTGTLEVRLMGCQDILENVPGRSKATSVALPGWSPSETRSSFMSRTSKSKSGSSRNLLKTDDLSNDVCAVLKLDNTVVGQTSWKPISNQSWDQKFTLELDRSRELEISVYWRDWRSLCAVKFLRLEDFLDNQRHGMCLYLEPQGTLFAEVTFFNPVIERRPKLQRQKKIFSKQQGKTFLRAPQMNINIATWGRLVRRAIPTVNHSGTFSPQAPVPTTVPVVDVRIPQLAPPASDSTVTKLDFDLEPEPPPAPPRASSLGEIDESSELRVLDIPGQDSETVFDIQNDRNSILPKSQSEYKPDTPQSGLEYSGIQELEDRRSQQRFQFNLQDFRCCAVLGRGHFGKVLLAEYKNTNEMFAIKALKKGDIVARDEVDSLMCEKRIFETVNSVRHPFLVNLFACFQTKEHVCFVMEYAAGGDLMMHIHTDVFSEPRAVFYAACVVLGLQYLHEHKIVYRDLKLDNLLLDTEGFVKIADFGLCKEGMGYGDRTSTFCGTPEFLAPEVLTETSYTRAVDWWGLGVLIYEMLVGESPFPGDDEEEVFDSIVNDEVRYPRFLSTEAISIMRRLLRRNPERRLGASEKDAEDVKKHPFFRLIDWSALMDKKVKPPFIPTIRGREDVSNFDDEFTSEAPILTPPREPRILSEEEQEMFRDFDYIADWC

`CCn1cc(-c2ccnc3[nH]c(-c4cccc(CN(C)C)c4)cc23)c(-c2ccc(NC(=O)N(C)C)cc2)n1` [GSK1070916]: the remaining activity at 0.1 µM in experiment [1] was 106%; in [2] it was 102%; in experiment [3], 101%; in experiment [4] it was 60.2% and 59.9%; in [5] it was 101%; in [6] it was 97.5%. For the same compound, the remaining activity at 0.1 µM in [7] came to 115%; in experiment [8], 100%; in [9], 90%; in experiment [10], 93.7%; in experiment [11], 97.6%.

Regarding `O=C(O)[C@]1(Cc2cccc(Nc3nccs3)n2)CC[C@@H](Oc2cccc(Cl)c2F)CC1` [MK-5108], the remaining activity at 0.1 µM in experiment [1] is 92.8%; in experiment [2], 0.98%; in experiment [3], 98.4%; in [4] (FLT4/VEGFR3, [ATP] 5 µM, 100 nM), 26.2%; in experiment [5] it was 95.5%; in [6] it was 100%. Moreover, the remaining activity at 0.1 µM in experiment [7] was found to be 108%; in [8], 111%; in experiment [9] it was 30.5%; in experiment [10] it was 108%; in experiment [11], 99%. The remaining activity at 0.5 µM in experiment [1] (500 nM) worked out at 89.8%; in experiment [2] (500 nM), 1.15%; in experiment [3] (500 nM), 106%; in [4] (setting [12]) it was 6.3%; in experiment [5] (500 nM), 97.8%; in experiment [6] (500 nM), 89.7%. For the same compound, the remaining activity at 0.5 µM was 108% in experiment [7] (500 nM); 98.3% in experiment [8] (500 nM); 11.6% in experiment [9] (500 nM); 88.6% in [10] (500 nM); 92.3% in [11] (500 nM).

On to `O=C(c1cccc(Cl)c1F)N1CCN(Cc2cccc(Nc3nccs3)n2)CC1` [MK-8745], for which the “% Enzyme Activity (relative to DMSO controls)” value came to 92.31% in [1] (500 nM); 3.19% in experiment [2] (500 nM); 103.36% in [3] (500 nM); 87.71% in [4] (setting [12]); 99.72% in experiment [5] (500 nM); 93.95% in experiment [6] (500 nM). The “% Enzyme Activity (relative to DMSO controls)” value is on record as 103.16% in [7] (500 nM); 99.16% in experiment [8] (500 nM); 38.63% in experiment [9] (500 nM); 102.60% in experiment [10] (500 nM); 91.96% in [11] (500 nM). The remaining activity at 0.5 µM came to 95.9% in experiment [1] (500 nM); 3.49% in experiment [2] (500 nM); 104% in experiment [3] (500 nM); 88.4% in experiment [4] (setting [12]); 101% in experiment [5] (500 nM); 96.7% in experiment [6] (500 nM). Moreover, the remaining activity at 0.5 µM in [7] (500 nM) was 104%; in experiment [8] (500 nM) it was 100%; in experiment [9] (500 nM) it was 39.1%; in experiment [10] (500 nM), 105%; in experiment [11] (500 nM), 93%.

For the origin of these results see publication PMC4685510, “A Cell Biologist’s Field Guide to Aurora Kinase Inhibitors” (Frontiers in Oncology, 2015).
